Results on 25 compounds are retold here after patent US20200079758A1, “[4-(PHENYLSULFONYL)PIPERAZIN-1-YL](1H-1,2,3-TRIAZOL-4-YL)METHANONES” (priority 2016, published 2020).

The structures appear in SMILES notation.

Usually IC50 stands for the point on the concentration scale where inhibition reaches its midpoint.

The test addresses T1, recombinant human AKR1C3 (Homo sapiens, UniProt P42330).
T1 construct: GST (cleaved yes); made in house; host or cells: E. coli
T1 sequence (P42330 1-323): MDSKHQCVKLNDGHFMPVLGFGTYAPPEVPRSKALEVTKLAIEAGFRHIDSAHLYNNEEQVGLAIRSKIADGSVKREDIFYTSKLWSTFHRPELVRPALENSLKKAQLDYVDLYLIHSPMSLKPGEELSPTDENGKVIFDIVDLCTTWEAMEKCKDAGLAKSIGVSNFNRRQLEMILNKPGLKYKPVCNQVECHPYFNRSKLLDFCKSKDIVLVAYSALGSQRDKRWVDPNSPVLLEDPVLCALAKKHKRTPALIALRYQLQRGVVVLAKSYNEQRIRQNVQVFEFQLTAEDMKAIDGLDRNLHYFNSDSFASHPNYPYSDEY
Nature of the test: AKR1C3-inhibitory activity assay (generation of Coumberol from Coumberone). The format is biochemical. As to conditions: Coumberone 0.3 μM, NADPH 10 μM, 22° C., typically 90 min, average or median values. How it is done:
The AKR1C3-inhibitory activity of the substances of the present invention was measured in the AKR1C3 assay described in the paragraphs below.
Essentially, the enzyme activity is measured by quantification of the generation of Coumberol from Coumberone (Halim et al. J. AM. CHEM. SOC. 2008, 130:14123-14128 and Yee et al. Proc. Natl. Acad. Sci. USA 2006, 103:13304-13309). In this test, the increase of the highly fluorescent Coumberol by NADPH- (nicotinamide adenine dinucleotide phosphate)-dependent reduction of the non-fluorescent Coumberone by AKR1C3 was determined.
The enzyme used was recombinant human AKR1C3 (Aldo-keto reductase family 1 member C3; GenBank Accession No. NM_003739). This was expressed in E. coli as GST (glutathione S transferase) fusion protein and purified by glutathione Sepharose affinity chromatography. The GST was removed by digestion with thrombin and subsequent size exclusion chromatography (Dufort, I., Rheault, P., Huang, X F., Soucy, P., and Luu-The, V., Endocrinology 140, 568-574 (1999)).
For the assay, 50 nl of a 100-fold concentrated solution of the test substance in DMSO were pipetted into a black low-volume 384-well microtiter plate (Greiner Bio-One, Frickenhausen, Germany), 2.5 μl of a solution of AKR1C3 in assay buffer [50 mM potassium phosphate buffer pH 7, 1 mM DTT, 0.0022% (w/v) Pluronic F-127, 0.01% BSA (w/v) and protease inhibitor cocktail (Complete, EDTA-free Protease Inhibitor Cocktail from Roche)] were added and the mixture was incubated for 15 min to allow pre-binding of the substances to the enzyme prior to the enzyme reaction. The enzyme reaction was then started by addition of 2.5 μl of a solution of NADPH (20 μM→final concentration in 5 μl of assay volume is 10 μM) and Coumberone (0.6 μM→final concentration in 5 μl of assay volume is 0.3 μM) in assay buffer, and the resulting mixture was incubated at 22° C. for the reaction time of typically 90 min. The concentration of the AKR1C3 and the reaction time was adapted to the respective activity of the enzyme preparation and adjusted such that the assay was carried out in the linear range. Typical AKR1C3 concentrations were in the region of 1 nM. The reaction was stopped by addition of 2.5 μl of a stop solution consisting of 3 μM EM-1404 as inhibitor (U.S. Pat. No. 6,541,463) in 50 mM HEPES pH7.5 (3 μM EM-1404→final concentration in 7.5 μl of assay volume is 1 μM). The fluorescence of the Coumberole was then measured at 520 nm (excitation at 380 nm) using a suitable measuring instrument (Pherastar from BMG Labtechnologies). The intensity of the fluorescence was used as a measure of the amount of Coumberole formed and thus of the enzyme activity of AKR1C3. The data were normalized (enzyme reaction without inhibitor=0% inhibition; all other assay components, but no enzyme=100% inhibition).
In the case of `C[C@@H]1CN(S(=O)(=O)c2ccc(OC(F)(F)F)cc2)C[C@H](C)N1C(=O)c1cnn[nH]1` [Example 101, [(2R,6S)-2,6-dimethyl-4-{[4-(trifluoromethoxy)phenyl]sulfonyl}piperazin-1-yl](1H-1,2,3-triazol-5-yl)methanone], the IC50 came out at 399 nM. For the compound `C[C@@H]1CN(S(=O)(=O)c2ccccc2Br)C[C@H](C)N1C(=O)c1cnn[nH]1` [Example 102, {(2R,6S)-4-[(2-bromophenyl)sulfonyl]-2,6-dimethylpiperazin-1-yl}(1H-1,2,3-triazol-5-yl)methanone], the 50% inhibitory concentration (IC50) is 1 nM. `COc1ccc(S(=O)(=O)N2C[C@@H](C)N(C(=O)c3cnn[nH]3)[C@@H](C)C2)cc1` [Example 97, {(2R,6S)-4-[(4-methoxyphenyl)sulfonyl]-2,6-dimethylpiperazin-1-yl}(1H-1,2,3-triazol-5-yl)methanone]: the IC50 amounted to 151 nM. With `C[C@@H]1CN(C(=O)c2cnn[nH]2)C[C@H](C)N1S(=O)(=O)c1cccc(F)c1` [Example 41, {(3R,5S)-4-[(3-fluorophenyl)sulfonyl]-3,5-dimethylpiperazin-1-yl}(1H-1,2,3-triazol-5-yl)methanone], the IC50 was 9 nM.

Consider `CC1(C)CN(C(=O)c2cnn[nH]2)CCN1S(=O)(=O)c1ccc(F)c(F)c1` [Example 36, {4-[(3,4-difluorophenyl)sulfonyl]-3,3-dimethylpiperazin-1-yl}(1H-1,2,3-triazol-5-yl)methanone], for which the IC50 came to 26 nM. As for `C[C@@H]1CN(C(=O)c2c[nH]nn2)[C@@H](C)CN1S(=O)(=O)c1cccnc1` [Example 11, [(2S,5R)-2,5-dimethyl-4-(pyridin-3-ylsulfonyl)piperazin-1-yl](1H-1,2,3-triazol-5-yl)methanone], the IC50 was 77 nM. The same measure for `Cc1ccccc1S(=O)(=O)N1C[C@@H](C)N(C(=O)c2c[nH]nn2)[C@@H](C)C1` [Example 45, {(2R,6S)-2,6-dimethyl-4-[(2-methylphenyl)sulfonyl]piperazin-1-yl}(1H-1,2,3-triazol-4-yl)methanone]: 1 nM; for `C[C@@H]1CN(C(=O)c2cnn[nH]2)[C@@H](C)CN1S(=O)(=O)c1ccc(F)c(F)c1` [Example 82, {(2S,5R)-4-[(3,4-difluorophenyl)sulfonyl]-2,5-dimethylpiperazin-1-yl}(1H-1,2,3-triazol-5-yl)methanone]: 2 nM; for `COc1ccc(Cl)cc1S(=O)(=O)N1CCN(C(=O)c2cnn[nH]2)CC1(C)C` [Example 124, {4-[(5-chloro-2-methoxyphenyl)sulfonyl]-3,3-dimethylpiperazin-1-yl}(1H-1,2,3-triazol-5-yl)methanone]: 96 nM.

Consider `CC1(C)CN(C(=O)c2c[nH]nn2)CCN1S(=O)(=O)c1cccc(F)c1` [Example 20, {4-[(3-fluorophenyl)sulfonyl]-3,3-dimethylpiperazin-1-yl}(1H-1,2,3-triazol-4-yl)methanone], for which the IC50 was 11 nM. On to `Cc1cccc(S(=O)(=O)N2C[C@@H](C)N(C(=O)c3c[nH]nn3)[C@@H](C)C2)c1` [Example 49, {(2R,6S)-2,6-dimethyl-4-[(3-methylphenyl)sulfonyl]piperazin-1-yl}(1H-1,2,3-triazol-4-yl)methanone], for which the IC50 turned out to be 6 nM. The same measure for `CC1(C)CN(C(=O)c2cnn[nH]2)CCN1S(=O)(=O)c1cc(Cl)ccc1F` [Example 127, {4-[(5-chloro-2-fluorophenyl)sulfonyl]-3,3-dimethylpiperazin-1-yl}(1H-1,2,3-triazol-5-yl)methanone]: 4 nM; for `C[C@@H]1CN(C(=O)c2cnn[nH]2)[C@@H](C)CN1S(=O)(=O)c1ccccc1` [Example 1, [(2S,5R)-2,5-dimethyl-4-(phenylsulfonyl)piperazin-1-yl](1H-1,2,3-triazol-5-yl)methanone]: 2 nM. Take `C[C@@H]1CN(C(=O)c2cnn[nH]2)[C@@H](C)CN1S(=O)(=O)c1ccc(OC(F)(F)F)cc1` [Example 71, [(2S,5R)-2,5-dimethyl-4-{[4-(trifluoromethoxy)phenyl]sulfonyl}piperazin-1-yl](1H-1,2,3-triazol-5-yl)methanone]: the IC50 came to 22 nM. Consider `C[C@@H]1CN(S(=O)(=O)c2cccc(C(F)(F)F)c2)C[C@H](C)N1C(=O)c1c[nH]nn1` [Example 57, [(2R,6S)-2,6-dimethyl-4-{[3-(trifluoromethyl)phenyl]sulfonyl}piperazin-1-yl](1H-1,2,3-triazol-4-yl)methanone], for which the 50% inhibitory concentration (IC50) was 10 nM. As for `CC1(C)CN(C(=O)c2cnn[nH]2)CCN1S(=O)(=O)c1cccc(Cl)c1C#N` [Example 134, 2-chloro-6-{[2,2-dimethyl-4-(1H-1,2,3-triazol-5-ylcarbonyl)piperazin-1-yl]sulfonyl}benzonitrile], the half-inhibitory concentration (IC50) worked out at 7 nM.

`C[C@@H]1CN(S(=O)(=O)c2cccc(Cl)c2F)C[C@H](C)N1C(=O)c1c[nH]nn1` [Example 55, {(2R,6S)-4-[(3-chloro-2-fluorophenyl)sulfonyl]-2,6-dimethylpiperazin-1-yl}(1H-1,2,3-triazol-4-yl)methanone]: the concentration for half-maximal inhibition (IC50) came to 10 nM. On to `C[C@@H]1CN(S(=O)(=O)c2cccc(OC(F)(F)F)c2)C[C@H](C)N1C(=O)c1cnn[nH]1` [Example 106, [(2R,6S)-2,6-dimethyl-4-{[3-(trifluoromethoxy)phenyl]sulfonyl}piperazin-1-yl](1H-1,2,3-triazol-5-yl)methanone], for which the half-maximal inhibitory concentration (IC50) stood at 34 nM.

On to `C[C@@H]1CN(C(=O)c2cnn[nH]2)[C@@H](C)CN1S(=O)(=O)Cc1ccccc1` [Example 64, [(2S,5R)-4-(benzylsulfonyl)-2,5-dimethylpiperazin-1-yl](1H-1,2,3-triazol-5-yl)methanone], for which the half-inhibitory concentration (IC50) stood at 114 nM.

On to `COc1ccc(C#N)cc1S(=O)(=O)N1CCN(C(=O)c2cnn[nH]2)CC1(C)C` [Example 139, 3-{[2,2-dimethyl-4-(1H-1,2,3-triazol-5-ylcarbonyl)piperazin-1-yl]sulfonyl}-4-methoxybenzonitrile], for which the IC50 is 285 nM. As for `C[C@@H]1CN(S(=O)(=O)c2cc(F)ccc2F)C[C@H](C)N1C(=O)c1c[nH]nn1` [Example 59, {(2R,6S)-4-[(2,5-difluorophenyl)sulfonyl]-2,6-dimethylpiperazin-1-yl}(1H-1,2,3-triazol-4-yl)methanone], the half-maximal inhibitory concentration (IC50) was 4 nM. For the compound `C[C@@H]1CN(S(=O)(=O)c2ccccc2Cl)C[C@H](C)N1C(=O)c1c[nH]nn1` [Example 46, {(2R,6S)-4-[(2-chlorophenyl)sulfonyl]-2,6-dimethylpiperazin-1-yl}(1H-1,2,3-triazol-4-yl)methanone], the half-maximal inhibitory concentration (IC50) stood at 2 nM. Take `C[C@@H]1CN(C(=O)c2cnn[nH]2)C[C@H](C)N1S(=O)(=O)c1cc(Cl)cc(Cl)c1` [Example 40, {(3R,5S)-4-[(3,5-dichlorophenyl)sulfonyl]-3,5-dimethylpiperazin-1-yl}(1H-1,2,3-triazol-5-yl)methanone]: the IC50 was 2 nM. On to `CC1(C)CN(C(=O)c2c[nH]nn2)CCN1S(=O)(=O)c1cccc(C(F)(F)F)c1` [Example 28, (3,3-dimethyl-4-{[3-(trifluoromethyl)phenyl]sulfonyl}piperazin-1-yl)(1H-1,2,3-triazol-4-yl)methanone], for which the IC50 is 3 nM. On to `CC1(C)CN(C(=O)c2cnn[nH]2)CCN1S(=O)(=O)c1ccc2nsnc2c1` [Example 125, [4-(2,1,3-benzothiadiazol-5-ylsulfonyl)-3,3-dimethylpiperazin-1-yl](1H-1,2,3-triazol-5-yl)methanone], for which the half-maximal inhibitory concentration (IC50) worked out at 25 nM.
